Experiment [1] addresses T1, human δ opioid receptor (Homo sapiens, UniProt P41143). Kind of experiment: [35S]GTPγS binding assay, intrinsic. The class given is biochemical. (GTPγS resists hydrolysis and so accumulates on activated G proteins.)
Experiment [2] deals with T2, human μ opioid receptor (Homo sapiens, UniProt P35372). The following applies: cloned human μ receptor; data taken from ref 15; cited from earlier work.
For experiment [3], the target named is T2, human μ opioid receptor. Briefly: [35S]GTPγS binding assay, intrinsic. It counts as biochemical.
Experiment [4] deals with T3, human κ opioid receptor (Homo sapiens, UniProt P41145). Briefly: [35S]GTPγS binding assay, intrinsic. It counts as biochemical.
T3 sequence (P41145 whole entry): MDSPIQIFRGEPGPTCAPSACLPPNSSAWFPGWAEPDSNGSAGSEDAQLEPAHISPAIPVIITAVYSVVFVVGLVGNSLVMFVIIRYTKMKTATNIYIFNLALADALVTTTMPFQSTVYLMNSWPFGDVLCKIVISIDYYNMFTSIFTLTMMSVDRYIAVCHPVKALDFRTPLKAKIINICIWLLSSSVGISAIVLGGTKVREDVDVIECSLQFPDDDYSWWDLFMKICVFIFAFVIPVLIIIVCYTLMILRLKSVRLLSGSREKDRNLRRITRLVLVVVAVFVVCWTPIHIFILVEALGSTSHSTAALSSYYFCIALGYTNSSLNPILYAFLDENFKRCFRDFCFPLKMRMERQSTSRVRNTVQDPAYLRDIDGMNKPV
The test system of another experiment is κ receptor. The following applies: mouse writhing test, κ antagonism; cited from earlier work. A general note: Writhing tests count abdominal constrictions after an irritant is injected.
The next experiment concerns μ receptor. The following applies: mouse writhing test, μ antagonism; cited from earlier work.
Experiment [5] has as its target T1, human δ opioid receptor. The following applies: cloned human δ receptor; data taken from ref 15; cited from earlier work.
Experiment [6] has as its target T3, human κ opioid receptor. Kind of experiment: Inhibition of U69,593-stimulated [35S]GTPγS binding. It counts as biochemical. The following applies: for fold more potent antagonist than N-methyl counterpart, κ receptor: ratio of Ke values (a vs b analogue).
Experiment [7] concerns opioid receptor. The following applies: cited from earlier work.
The test system of experiment [8] is opioid receptor. The following applies: cited from earlier work. This is another data set of the same source.
Experiment [9] has as its target T1, human δ opioid receptor. Briefly: Inhibition of DPDPE-stimulated [35S]GTPγS binding. The following applies: for Ke (nM) δ, DPDPE: cloned human δ receptor in CHO cells, mean ± SE, at least three experiments. The class given is biochemical.
The target in experiment [10] is T2, human μ opioid receptor. Kind of experiment: Inhibition of DAMGO-stimulated [35S]GTPγS binding. The following applies: for fold more potent antagonist than N-methyl counterpart, μ receptor: ratio of Ke values (a vs b analogue). The class given is biochemical.

Entries after “also recorded” stand apart in the source; their conditions may differ. Like-named read-outs stand apart in the source and are kept apart here. Marks after values point to notes of the source that are not given here.

T1 sequence (P41143 whole entry): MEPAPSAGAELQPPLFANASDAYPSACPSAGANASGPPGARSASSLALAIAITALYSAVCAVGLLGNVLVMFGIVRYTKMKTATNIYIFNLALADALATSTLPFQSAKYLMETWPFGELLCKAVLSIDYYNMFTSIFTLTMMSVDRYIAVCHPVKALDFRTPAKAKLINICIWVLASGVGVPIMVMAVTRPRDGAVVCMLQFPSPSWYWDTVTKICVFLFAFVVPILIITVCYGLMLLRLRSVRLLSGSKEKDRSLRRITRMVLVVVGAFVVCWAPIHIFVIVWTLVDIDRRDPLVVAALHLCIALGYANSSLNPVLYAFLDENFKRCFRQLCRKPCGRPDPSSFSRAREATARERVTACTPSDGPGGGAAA
T2 sequence (P35372 whole entry): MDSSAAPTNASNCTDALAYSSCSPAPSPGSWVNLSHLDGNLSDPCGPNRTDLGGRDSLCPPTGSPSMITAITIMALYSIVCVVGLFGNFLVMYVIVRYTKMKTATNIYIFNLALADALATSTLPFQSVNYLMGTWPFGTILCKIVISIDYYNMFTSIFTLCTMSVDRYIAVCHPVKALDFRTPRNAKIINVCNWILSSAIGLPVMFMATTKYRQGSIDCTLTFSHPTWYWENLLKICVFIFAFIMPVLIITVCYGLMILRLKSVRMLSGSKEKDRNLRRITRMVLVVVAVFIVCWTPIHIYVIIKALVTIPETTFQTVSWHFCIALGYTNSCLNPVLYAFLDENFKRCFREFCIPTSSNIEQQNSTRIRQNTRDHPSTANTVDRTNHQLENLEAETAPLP

In the case of `C[C@H]1CN(C)CC[C@@]1(C)c1cccc(O)c1` [Compound 2a, 3-[(3R,4R)-1,3,4-Trimethylpiperidin-4-yl]phenol], on human δ opioid receptor [1], the “agonist activity at 10 μM, δ receptor” value is “no opioid agonist efficacy”. In addition, at human μ opioid receptor [2], the “Ke (nM) μ, DAMGO” value was 29.3 ± 3.4 ^b nM. On human μ opioid receptor [3], the “agonist activity at 10 μM, μ receptor” value was “no opioid agonist efficacy”. On human κ opioid receptor [4], the “agonist activity at 10 μM, κ receptor” value is “no opioid agonist efficacy”. In addition, in the experiment with κ receptor, the “AD50, antagonist of U50,488-induced antinociception” value is more than 5.0 mg/kg. The “AD50, antagonist of morphine-induced antinociception” value in the experiment with μ receptor is given as 0.74 mg/kg. Further, on human δ opioid receptor [5], the “Ke (nM) δ, DPDPE” value is listed as 681 ± 241 ^b nM. The compound also registered a Kb on human κ opioid receptor [6] of 134 ± 27.1 nM. Besides, the “opioid receptor agonist activity in the mouse writhing test” value in the experiment on opioid receptor [7] was “did not have any opioid receptor agonist activity”. In the experiment on opioid receptor [8], the “opioid receptor agonist activity in the rat tail heat analgesic test” value was “did not have any opioid receptor agonist activity”.
With `C[C@H]1CN(CCCc2ccccc2)CC[C@@]1(C)c1cccc(O)c1` [Compound 2b, 3-[(3R,4R)-3,4-Dimethyl-1-(3-phenylpropyl)piperidin-4-yl]phenol], the “Ke (nM) μ, DAMGO” value on human μ opioid receptor [2] is recorded as 0.1 ± 0.02 ^b nM. Moreover, in the experiment on μ receptor, the “AD50, antagonist of morphine-induced antinociception” value is listed as 0.28 mg/kg. Further, at human δ opioid receptor [5], the “Ke (nM) δ, DPDPE” value is given as 0.9 ± 0.32 ^b nM. On human κ opioid receptor [6], the Kb is 0.88 ± 0.17 nM.
Turning to `C[C@H]1CN(C)CCN1c1cccc(O)c1` [Compound 4a, 3-[(2S)-2,4-Dimethylpiperazin-1-yl]phenol], on human δ opioid receptor [1], the “agonist activity at 10 μM, δ receptor” value is given as “no opioid agonist efficacy”. The “agonist activity at 10 μM, μ receptor” value at human μ opioid receptor [3] is “no opioid agonist efficacy”. For the same compound, the “agonist activity at 10 μM, κ receptor” value on human κ opioid receptor [4] is “no opioid agonist efficacy”. Further, at human δ opioid receptor [9], the “Ke (nM) δ, DPDPE” value is recorded as “no antagonism; also recorded: IA ^d”.
Consider `C[C@H]1CN(CCCc2ccccc2)CCN1c1cccc(O)c1` [Compound 4b, 3-[(2S)-2-Methyl-4-(3-phenylpropyl)piperazin-1-yl]phenol], for which the “agonist activity at 10 μM, δ receptor” value on human δ opioid receptor [1] is given as “no opioid agonist efficacy”. Further, the “agonist activity at 10 μM, μ receptor” value at human μ opioid receptor [3] is listed as “no opioid agonist efficacy”. Besides, the “agonist activity at 10 μM, κ receptor” value on human κ opioid receptor [4] is given as “no opioid agonist efficacy”.
Consider `CC1CN(C)CCC1c1cccc(O)c1` (stereo not drawn) [Compound 5a, 3-(1,3-Dimethylpiperidin-4-yl)phenol], for which the figures for the Kb at human μ opioid receptor [10] and at human κ opioid receptor [6] were 1250 ± 423 nM and 1310 ± 447 nM, respectively.
As for `CC1CN(CCCc2ccccc2)CCC1c1cccc(O)c1` (stereo not drawn) [Compound 5b, 3-[3-Methyl-1-(3-phenylpropyl)piperidin-4-yl]phenol], at human δ opioid receptor [1], the “agonist activity at 10 μM, δ receptor” value was “no agonist efficacy”. Moreover, the “agonist activity at 10 μM, μ receptor” value on human μ opioid receptor [3] is “no agonist efficacy”. The “agonist activity at 10 μM, κ receptor” value on human κ opioid receptor [4] was “no agonist efficacy”. Besides, the Kb at human μ opioid receptor [10] stood at 11.9 ± 2 nM; on human κ opioid receptor [6], 16.5 ± 5 nM; on human δ opioid receptor [9], 46 ± 18 nM. Further, the “fold more potent antagonist than N-methyl counterpart, μ receptor” value at human μ opioid receptor [10] came out at 105 fold. Further, on human κ opioid receptor [6], the “fold more potent antagonist than N-methyl counterpart, κ receptor” value was 79 fold.
As to `CN1CCC(C)(c2cccc(O)c2)CC1` [Compound 6a, 3-(1,4-Dimethylpiperidin-4-yl)phenol], the EC50 at human δ opioid receptor [1] was 8300 nM. Also, the Kb stood at 974 ± 230 nM on human μ opioid receptor [10] and 477 ± 150 nM on human κ opioid receptor [6]. In addition, the “Ke (nM) δ, DPDPE” value on human δ opioid receptor [9] is listed as “agonist ^c”.
Consider `CC1(c2cccc(O)c2)CCN(CCCc2ccccc2)CC1` [Compound 6b, 3-[4-Methyl-1-(3-phenylpropyl)piperidin-4-yl]phenol], for which the “agonist activity at 10 μM, δ receptor” value at human δ opioid receptor [1] is given as “no agonist efficacy”. For the same compound, the “agonist activity at 10 μM, μ receptor” value at human μ opioid receptor [3] is given as “no agonist efficacy”. Also, the “agonist activity at 10 μM, κ receptor” value on human κ opioid receptor [4] was “no agonist efficacy”. At human μ opioid receptor [10], the Kb turned out to be 5.5 ± 0.59 nM and the “fold more potent antagonist than N-methyl counterpart, μ receptor” value was 177 fold. Besides, at human κ opioid receptor [6], the Kb worked out at 21.3 ± 9 nM and the “fold more potent antagonist than N-methyl counterpart, κ receptor” value came to 22 fold. In addition, the Kb at human δ opioid receptor [9] came out at 178 ± 47 nM.
Regarding `CN1CCC(c2cccc(O)c2)CC1` [Compound 7a, 3-(1-Methylpiperidin-4-yl)phenol], the “agonist activity at 10 μM, δ receptor” value on human δ opioid receptor [1] is on record as “no agonist activity”. Moreover, the “agonist activity at 10 μM, μ receptor” value at human μ opioid receptor [3] is given as “no agonist activity”. In addition, the “agonist activity at 10 μM, κ receptor” value at human κ opioid receptor [4] is “no agonist activity”. For the same compound, the “Ke (nM) μ, DAMGO” value on human μ opioid receptor [10] (cloned human μ receptor in CHO cells, mean ± SE, at least three experiments) was “inactive; also recorded: no antagonist properties; also recorded: IA ^d”. The Kb on human κ opioid receptor [6] came to 2700 ± 1300 nM. Further, the “Ke (nM) δ, DPDPE” value on human δ opioid receptor [9] is “inactive; also recorded: no antagonist properties; also recorded: IA ^d”.
With `Oc1cccc(C2CCN(CCCc3ccccc3)CC2)c1` [Compound 7b, 3-[1-(3-Phenylpropyl)piperidin-4-yl]phenol], the “agonist activity at 10 μM, δ receptor” value on human δ opioid receptor [1] is “no agonist efficacy”. For the same compound, the “agonist activity at 10 μM, μ receptor” value on human μ opioid receptor [3] is recorded as “no agonist efficacy”. Also, the “agonist activity at 10 μM, κ receptor” value at human κ opioid receptor [4] is given as “no agonist efficacy”. Besides, the Kb worked out at 75.6 ± 21 nM at human μ opioid receptor [10], 5.8 ± 2 nM on human κ opioid receptor [6] and 418 ± 120 nM at human δ opioid receptor [9].
Regarding `CN1CCN(c2cccc(O)c2)CC1` [Compound 8a, 3-(4-Methylpiperazin-1-yl)phenol], the “agonist activity at 10 μM, δ receptor” value at human δ opioid receptor [1] was “no opioid agonist efficacy”. Further, on human μ opioid receptor [3], the “agonist activity at 10 μM, μ receptor” value was “no opioid agonist efficacy”. Besides, the “agonist activity at 10 μM, κ receptor” value on human κ opioid receptor [4] is “no opioid agonist efficacy”. Further, the Kb at human μ opioid receptor [10] came out at 4300 ± 1700 nM; on human δ opioid receptor [9] it was 1600 ± 480 nM.
Regarding `Oc1cccc(N2CCN(CCCc3ccccc3)CC2)c1` [Compound 8b, 3-[4-(3-Phenylpropyl)piperazin-1-yl]phenol], the “agonist activity at 10 μM, δ receptor” value at human δ opioid receptor [1] was “no opioid agonist efficacy”. Also, on human μ opioid receptor [3], the “agonist activity at 10 μM, μ receptor” value is given as “no opioid agonist efficacy”. Also, the “agonist activity at 10 μM, κ receptor” value at human κ opioid receptor [4] is “no opioid agonist efficacy”. At human μ opioid receptor [10], the “fold more potent antagonist than N-methyl counterpart, μ receptor” value came to 507 fold. The compound also came in with a Kb on human κ opioid receptor [6] of 36.8 ± 16.8 nM. For the same compound, the “fold more potent antagonist than N-methyl counterpart, δ receptor” value on human δ opioid receptor [9] (ratio of Ke values (a vs b analogue)) was found to be 47 fold.

By EC50 is commonly meant the concentration that produces a half-maximal response. A low value points to an effect from little substance.
